In DBAASP:
≈ marks a conversion by molar mass, not a printed value. Blank lines part the entries; values can stand above or below the compound they belong to.

Key:
Assay in all cases: ≥ marks a high value that may be exact or a test limit, other limits are often not marked, values filed in µg/mL are converted to µM
[1] = system: Pseudomonas aeruginosa ATCC 10145
[2] = system: Escherichia coli D31
[3] = system: Acinetobacter baumannii ATCC 19606
[4] = system: Staphylococcus aureus ATCC 27660
[5] = system: Pseudomonas aeruginosa 910
[6] = system: Pseudomonas aeruginosa PAO1
[7] = system: Pseudomonas aeruginosa 253
[8] = system: Pseudomonas aeruginosa 919
[9] = system: Staphylococcus aureus SH1000
[10] = system: Staphylococcus aureus ATCC 43300
[11] = system: Pseudomonas aeruginosa ATCC 27853
[12] = system: Klebsiella pneumoniae ATCC 700603
[13] = system: Candida albicans ATCC 90028
[14] = system: Escherichia coli ATCC 25922
[15] = system: Cryptococcus neoformans ATCC 208821
[16] = system: Escherichia coli W3110
[17] = system: Klebsiella pneumoniae ATCC BAA-1705
[18] = system: Bacillus subtilis DSM 347
[19] = system: Escherichia coli DSM 1116
[20] = system: Staphylococcus xylosus DSM 20267
[21] = system: Franconibacter helveticus DSM 18390
[22] = system: Klebsiella pneumoniae ESBL 344/17
[23] = system: Pseudomonas aeruginosa 522/17
[24] = system: Escherichia coli ML-35p
[25] = system: Staphylococcus aureus 1399/17
[26] = system: Staphylococcus aureus SG511
[27] = system: Staphylococcus aureus ATCC 33591
[28] = system: Acinetobacter baumannii 7226/16
[29] = system: Escherichia coli ESBL 521/17
[30] = system: Aspergillus oryzae NBRC 100959
[31] = system: Staphylococcus epidermidis NBRC 12993
[32] = system: Micrococcus luteus NBRC 3333
[33] = system: Escherichia coli NBRC 3972
[34] = system: Candida viswanathii NBRC 10321
[35] = system: Pseudomonas aeruginosa E411-17
[36] = system: Staphylococcus aureus M838-17
[37] = system: Klebsiella pneumoniae E406-17

SMILES: C[C@H](N)C(=O)N[C@@H](C)C(=O)N[C@@H](Cc1c[nH]c2ccccc12)C(=O)N[C@@H](CCCCN)C(=O)N[C@@H](CCCCN)C(=O)N[C@@H](C)C(=O)N[C@@H](C)C(=O)N[C@@H](CCCCN)C(=O)N[C@@H](CCCCN)C(=O)N[C@@H](C)C(=O)N[C@@H](C)C(=O)N[C@@H](CCCCN)C(=O)N[C@@H](CO)C(=O)N[C@@H](C)C(=O)N[C@@H](CCCCN)C(=O)N[C@@H](CCCCN)C(=O)N[C@@H](C)C(=O)NCC(N)=O [AAWKKAAKKAAKSAKKAG]
MIC [1]: 15 µM (≈ 27.2 µg/mL)
MIC [2]: 15 µM (≈ 27.2 µg/mL)
MIC [3]: > 15 µM
MIC [4]: 15 µM (≈ 27.2 µg/mL)

SMILES: CC[C@H](C)[C@H](NC(=O)[C@H](CC(=O)O)NC(=O)[C@H](Cc1ccccc1)NC(=O)[C@H](CC(C)C)NC(=O)CN)C(=O)N[C@H](C(=O)N[C@@H](CCCCN)C(=O)N[C@@H](CCCCN)C(=O)N[C@H](C(=O)N[C@H](C(=O)NCC(=O)N[C@@H](C)C(=O)N[C@@H](CC(C)C)C(=O)NCC(N)=O)C(C)C)C(C)C)C(C)C [GLFDIVKKVVGALG]
MIC [9]: ≥ 50 µM
MIC [10]: > 23 µM
MIC [11]: > 23 µM
MIC [12]: > 23 µM
MIC [13]: 23 µM (≈ 32.5 µg/mL)
MIC [14]: > 23 µM
MIC [3]: > 23 µM
MIC [15]: 23 µM (≈ 32.5 µg/mL)

SMILES: CC(C)C[C@H](NC(=O)[C@H](CCCCN)NC(=O)[C@H](CC(C)C)NC(=O)[C@H](CCCCN)NC(=O)[C@H](CC(C)C)NC(=O)[C@H](CCCCN)NC(=O)[C@H](CC(C)C)NC(=O)[C@H](CCCCN)NC(=O)[C@H](CC(C)C)NC(=O)[C@H](CCCCN)NC(=O)[C@H](CC(C)C)NC(=O)[C@H](CCCCN)NC(=O)[C@H](CC(C)C)NC(=O)[C@@H](N)CCCCN)C(N)=O [KLKLKLKLKLKLKL]
MIC [18]: 2.34 µM (≈ 4 µg/mL)
MIC [19]: 4.69 µM (≈ 8 µg/mL)
MIC [20]: 2.34 µM (≈ 4 µg/mL)
MIC [21]: 2.34 µM (≈ 4 µg/mL)

SMILES: CC[C@H](C)[C@H](NC(=O)[C@H](CCCN=C(N)N)NC(=O)[C@@H](NC(=O)[C@@H]1CCCN1C(=O)[C@H](Cc1c[nH]c2ccccc12)NC(=O)[C@@H]1CCCN1C(=O)[C@H](CCCN=C(N)N)NC(=O)[C@H](CCCN=C(N)N)NC(=O)[C@H](Cc1ccccc1)NC(=O)[C@@H]1CCCN1C(=O)[C@H](CC(C)C)NC(=O)[C@H](CCCN=C(N)N)NC(=O)[C@H](Cc1ccccc1)NC(=O)[C@@H](N)CCCN=C(N)N)[C@@H](C)CC)C(=O)N[C@@H](Cc1cnc[nH]1)C(=O)N1CCC[C@H]1C(=O)N1CCC[C@H]1C(=O)N1CCC[C@H]1C(=O)N[C@@H](Cc1ccccc1)C(=O)N[C@@H](Cc1ccc(O)cc1)C(=O)N1CCC[C@H]1C(=O)N[C@@H](Cc1c[nH]c2ccccc12)C(=O)N1CCC[C@H]1C(=O)N[C@@H](Cc1ccccc1)C(=O)N[C@@H](CCCN=C(N)N)C(=O)N[C@@H](CCCN=C(N)N)C(=O)N[C@@H](Cc1ccccc1)C(=O)N[C@@H](CC(C)C)C(=O)O [RFRLPFRRPWPIRIHPPPFYPWPFRRFL]
MIC [22]: 8 µM (≈ 30 µg/mL)
MIC [23]: 16 µM (≈ 60 µg/mL)
MIC [24]: 4 µM (≈ 15 µg/mL)
MIC [25]: 8 µM (≈ 30 µg/mL)
MIC [26]: 0.5 µM (≈ 1.87 µg/mL)
MIC [27]: 8 µM (≈ 30 µg/mL)
MIC [28]: 11.3 µM (≈ 42.4 µg/mL)
MIC [29]: 4 µM (≈ 15 µg/mL)

Further lines, results first:

MIC [5]: 8 µM (≈ 15 µg/mL)
MIC [6]: 4 µM (≈ 7.51 µg/mL)
MIC [7]: 11.3 µM (≈ 21.2 µg/mL)
MIC [8]: ≥ 32 µM
SMILES: CC[C@H](C)[C@H](NC(=O)[C@@H](N)Cc1ccccc1)C(=O)N[C@@H](CCCCN)C(=O)N[C@@H](CCCN=C(N)N)C(=O)N[C@@H](CCCCN)C(=O)N[C@@H](CO)C(=O)N[C@@H](CCCN=C(N)N)C(=O)N[C@@H](Cc1c[nH]c2ccccc12)C(=O)N[C@@H](Cc1c[nH]c2ccccc12)C(=O)N[C@@H](CCCCN)C(=O)N[C@@H](Cc1c[nH]c2ccccc12)C(=O)N[C@@H](CCCN=C(N)N)C(=O)N[C@H](C(N)=O)[C@@H](C)O [FIKRKSRWWKWRT]

MIC [16]: 4 µM (≈ 9 µg/mL)
MIC [17]: ≥ 64 µM
SMILES: CC[C@H](C)[C@H](N)C(=O)N[C@@H](CC(C)C)C(=O)N[C@@H](Cc1c[nH]c2ccccc12)C(=O)N[C@@H](C)C(=O)N[C@@H](CCCCN)C(=O)N[C@@H](Cc1c[nH]c2ccccc12)C(=O)NCC(=O)N[C@@H](CC(C)C)C(=O)N[C@@H](CCCCN)C(=O)N[C@@H](CC(C)C)C(=O)N[C@@H](CC(C)C)C(=O)N[C@@H](CCCN=C(N)N)C(=O)N[C@@H](Cc1ccc(O)cc1)C(=O)N[C@@H](CCCN=C(N)N)C(=O)N[C@@H](CCCN=C(N)N)C(=O)N[C@H](C(=O)N[C@@H](Cc1ccc(O)cc1)C(=O)O)[C@@H](C)CC [ILWAKWGLKLLRYRRIY]

MIC [30]: 7.27 µM (≈ 12.5 µg/mL)
MIC [31]: 14.5 µM (≈ 25 µg/mL)
MIC [32]: 14.5 µM (≈ 25 µg/mL)
MIC [33]: ≥ 116 µM
MIC [34]: 14.5 µM (≈ 25 µg/mL)
SMILES: CC[C@H](C)[C@H](NC(=O)[C@H](CCSC)NC(=O)[C@H](CCCN=C(N)N)NC(=O)[C@H](CCCN=C(N)N)NC(=O)[C@H](CC(C)C)NC(=O)[C@H](Cc1ccc(O)cc1)NC(=O)[C@H](CCCN=C(N)N)NC(=O)[C@H](CCCCN)NC(=O)[C@@H](NC(=O)[C@H](CCCCN)NC(=O)[C@@H](N)CCCN=C(N)N)[C@@H](C)CC)C(=O)N[C@@H](Cc1c[nH]c2ccccc12)C(=O)O [RKIKRYLRRMIW]

MIC [35]: 12.5 µM (≈ 16.4 µg/mL)
MIC [36]: 6.25 µM (≈ 8.21 µg/mL)
MIC [37]: ≥ 50 µM
SMILES: CC(C)C[C@H](NC(=O)[C@H](Cc1c[nH]c2ccccc12)NC(=O)[C@H](Cc1c[nH]c2ccccc12)NC(=O)[C@H](Cc1c[nH]c2ccccc12)NC(=O)[C@H](CCCN=C(N)N)NC(=O)[C@H](CCCN=C(N)N)NC(=O)[C@H](CCCN=C(N)N)NC(=O)[C@@H](N)CCCN=C(N)N)C(N)=O [RRRRWWWL]
